The source of these data is patent US12692283B2, “Lignan derivative, preparation method therefor and use thereof” (SHANGHAI INSTITUTE OF MATERIA MEDICA, CHINESE ACADEMY OF …, priority 2021, dated 2026).

Data set [1] relates to WI-38 senescent cells. The data set is described as follows: Viability of doxorubicin-induced senescent WI-38 human fibroblasts (MTT). The format is cell-based. The settings on record: WI-38, 72 h, senescent cells induced by 200 nM doxorubicin, co-incubation 3 days. On the procedure: WI-38 cells were cultured in DMEM (high glucose, 4.5 g/L) culture medium (supplemented with 10% FBS, 1% PS).
The experimental testing steps for the effects of compounds on the viability of WI-38 senescent cells were as follows. WI-38 cells were seeded in a 96-well plate at 20,000 cells/well. After overnight, 200 nM doxorubicin was added to each well and incubated for 3 days. Then the medium was replaced with normal culture medium. After 1 day of incubation, the culture medium was replaced with 200 nM doxorubicin and incubated for 3 days to successfully induce senescence of WI-38 cells. Subsequently, different concentrations of compounds were added (40 μM was the highest concentration, and diluted according to ¼, a total of 7 concentrations), and after co-incubation for 3 days, 10 μl of MTT (5 mg/ml) was added to each well and incubated for 4 hours. DMSO (150 μl) was added to each well after aspirating the culture medium.

Data set [2] has as its system MLO-Y4 senescent cells. Nature of the data set: Viability of doxorubicin-induced senescent MLO-Y4 mouse osteoid cells (MTT). The settings on record: MLO-Y4, 72 h, senescent cells induced by 100 nM doxorubicin, co-incubation 3 days, read-out: MOL-Y4 IC50. The format is cell-based. On the procedure:
MOL-Y4 cells were cultured in MEM culture medium (supplemented with 10% FBS, 1% PS).
The experimental steps for testing the effects of compounds on the viability of MOL-Y4 senescent cells were as follows. MOL-Y4 cells were seeded in a 96-well plate at 20,000 cells/well. After overnight, 100 nM doxorubicin was added to each well and incubated for 3 days. Then the medium was replaced with normal culture medium. After 1 day of incubation, the culture medium was replaced with 100 nM doxorubicin and incubated for 3 days to successfully induce senescence of MOL-Y4 cells. Subsequently, different concentrations of compounds were added (40 μM was the highest concentration, and diluted according to ¼, a total of 7 concentrations), and after co-incubation for 3 days, 10 μl of MTT (5 mg/ml) was added to each well and incubated for 4 hours. DMSO (150 μl) was added to each well after aspirating the culture medium.

Data set [3] concerns OCI-AML3 cells. Nature of the data set: Viability of human acute myeloid leukemia cells OCI-AML3 (CCK8). The format is cell-based. The settings on record: OCI-AML-3, 72 h, incubation 3 days. As for the experimental part:
OCI-AML3 cells, suspension cells, were cultured in RPIM1640+10% FBS+1% PS culture medium at 37° C. and 5% CO2. OCI-AML3 was seeded in a 96-well plate at 20,000 cells/well, and different concentrations of compounds were added (40 μM was the highest concentration, diluted according to ¼, a total of 7 concentrations). After incubation for 3 days, 10 μl CCK8 reagent was added to each well. After incubation for 2 hours, OD450 was detected by a microplate reader, then the effect of the compound on cell viability, IC50 value was calculated.

Data set [4] has as its system NB-1 cells. Nature of the data set: Viability of human neuroblastoma cells NB-1 (CCK8). Conditions: NB1, 72 h, incubation 3 days. The format is cell-based. As for the experimental part:
NB-1 cells, suspension cells, were cultured in RPIM1640+10% FBS+1% PS culture medium at 37° C. and 5% CO2. NB-1 was seeded in a 96-well plate at 20,000 cells/well, and different concentrations of compounds were added (40 μM was the highest concentration, diluted according to ¼, a total of 7 concentrations). After incubation for 3 days, 10 μL CCK8 reagent was added to each well. After incubation for 2 hours, OD450 was detected by a microplate reader, then the effect of the compound on cell viability, IC50 value was calculated.

Data set [5] deals with mitochondrial respiratory chain complex I. The settings on record: ACS Chemical Biology, 2013, 8 (1), 257-267; cited from earlier work.
For data set [6] the following is noted: Acta Pharmacologica Sinica, 2018, 39, 787-801, cited from earlier work.
Data set [7] addresses Mitochondrial Respiratory Complex I (Complex I) (Mus musculus, UniProt P03888+Q91WD5+Q9DC70). The data set is described as follows: Inhibitory activity on mitochondrial respiratory Complex I (NADH activity, mitochondria from mouse heart tissue). Conditions: NADH 50 μM, read at 340 nm, 30 μg mouse heart mitochondrial protein. The format is biochemical. As for the experimental part:
Mitochondria were extracted from mouse heart tissue. […] of solution A (0.22M mannitol, 0.07M sucrose, 0.02M HEPES, 2 mM Tris-HCl, 1 mM EDTA, pH 7.2, 0.4% BSA) was added to the heart tissue. The tissue was cut up and then washed three times with solution A to remove blood and connective tissue, then homogenized using a glass homogenizer about 30 times. The suspension was centrifuged at 3000 g for 1.5 min, and the supernatant was retained. The precipitate was resuspended in solution A with protease inhibitor and re-centrifuged to collect the supernatant. The supernatants from two collections were mixed for the next step. The supernatant was centrifuged at 17500 g for 2.5 min and the supernatant was discarded. The precipitate was resuspended in solution A with protease inhibitor, centrifuged at 17500 g for 4.5 min, resuspended in solution B (2.5 mM potassium phosphate, 5 mM MgCl2 pH 7.2) and repeatedly frozen and thawed to obtain a solution of the mitochondrial complex for subsequent assay. To measure the NADH activity of Complex I, 2.5 mL of reaction solution containing 50 mM HEPES, 5 mM MgCl2 pH 7.5 and 30 μg of mitochondrial protein from the above process was prepared. The compound to be detected was added and equilibrated for 5 minutes, and then was dispensed into each well. Finally, NADH (50 μM) was quickly added, and data at […] were read every 30 sec for a total of 15 minutes. Calculation: the NADH reaction rates for different compounds were calculated, then the inhibition rate (compound reaction rate/control reaction rate×100) was calculated, and the IC50 value of the compound was finally calculated.

A short description of data set [8]: Oral pharmacokinetics of Compound A4-1a and Arctigenin in ICR mice (plasma, liver, colon). The format is in vivo, mouse. Conditions: oral 30 mg/kg, 1-8 h. As for the experimental part:
Arctigenin and Compound A4-1a were administered orally at 30 mg/kg to overnight-fasted ICR mice (male, n=3/time point), respectively. The mice were fed 2 hours after administration. Samples were collected before administration and 1 h, 2 h, 4 h, and 8 h after administration. Blood was collected in centrifuge tubes pretreated with heparin sodium and bis(4-nitrophenyl)phosphate (BNPP). After centrifugation at 11,000 rpm for 5 min at 4° C., plasma was obtained and stored at −80° C. Next, 100 […] of plasma sample, precipitated, vortexed for 1 min, and centrifuged (11,000 rpm) for 5 min. A mixture of 20 […] of methanol/acetonitrile (1:1, v/v) was taken to analyze the concentration of the compound by LC-MS/MS. Liver tissue was stored at −80° C. until analysis. After removal of contents, the colon was quickly washed with cold saline containing BNPP and stored at −80° C. until analysis. Analysis method: After 10 times the weight of MeOH/ACN (1:1, v/v) was added to the tissue samples, the homogenate was obtained by homogenizing for 120 s with a homogenizer at 50 Hz and then centrifuged (11000 rpm) for 5 min, and the supernatant was collected. 20 μL of the supernatant was redissolved in 20 μL of ACN/H2O (1:1, v/v), and the compound concentration was analyzed in LC-MS/MS.

Chain of Mitochondrial Respiratory Complex I (Complex I) (P03888 whole entry): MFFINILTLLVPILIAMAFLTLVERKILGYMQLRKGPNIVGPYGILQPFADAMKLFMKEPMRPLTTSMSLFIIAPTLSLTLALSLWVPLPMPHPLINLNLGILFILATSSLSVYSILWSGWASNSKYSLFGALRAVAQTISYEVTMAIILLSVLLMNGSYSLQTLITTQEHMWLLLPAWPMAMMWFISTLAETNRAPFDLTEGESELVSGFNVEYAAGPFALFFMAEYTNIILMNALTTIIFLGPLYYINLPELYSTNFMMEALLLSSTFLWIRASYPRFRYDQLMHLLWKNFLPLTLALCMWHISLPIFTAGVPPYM
Chain of Mitochondrial Respiratory Complex I (Complex I) (Q91WD5 34-463): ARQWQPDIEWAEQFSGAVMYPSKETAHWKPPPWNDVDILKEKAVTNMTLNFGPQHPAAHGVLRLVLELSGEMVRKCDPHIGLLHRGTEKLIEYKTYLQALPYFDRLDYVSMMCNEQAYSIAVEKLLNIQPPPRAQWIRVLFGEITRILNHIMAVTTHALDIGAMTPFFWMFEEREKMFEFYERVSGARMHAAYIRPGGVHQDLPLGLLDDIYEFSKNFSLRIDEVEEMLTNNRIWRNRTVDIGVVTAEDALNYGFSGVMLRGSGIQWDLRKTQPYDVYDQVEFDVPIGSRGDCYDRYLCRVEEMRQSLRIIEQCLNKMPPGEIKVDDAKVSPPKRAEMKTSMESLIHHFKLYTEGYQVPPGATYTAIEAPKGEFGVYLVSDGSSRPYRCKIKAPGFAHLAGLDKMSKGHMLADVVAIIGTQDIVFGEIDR
Chain of Mitochondrial Respiratory Complex I (Complex I) (Q9DC70 36-224): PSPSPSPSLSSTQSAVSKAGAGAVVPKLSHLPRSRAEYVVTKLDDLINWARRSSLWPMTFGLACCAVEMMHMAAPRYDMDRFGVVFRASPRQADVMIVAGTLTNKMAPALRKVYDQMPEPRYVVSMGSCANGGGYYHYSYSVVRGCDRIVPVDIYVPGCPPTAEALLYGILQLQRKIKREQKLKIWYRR

For orientation: IC50 means the point on the concentration scale where inhibition reaches its midpoint. For `CC1(C)CCC(c2ccc(Cl)cc2)=C(CN2CCN(c3ccc(C(=O)NS(=O)(=O)c4ccc(N[C@H](CCN5CCOCC5)CSc5ccccc5)c(S(=O)(=O)C(F)(F)F)c4)cc3)CC2)C1` [ABT263, reference compound], the values for the IC50 in data set [1] and in data set [2] were 5.6 µM and 0.235 µM, respectively.

Regarding `COc1cc(C[C@H]2C(=O)OC[C@@H]2Cc2ccc(OC)c(OC)c2)ccc1O` [Arctigenin], in data set [3], the IC50 came to 0.589 µM. The IC50 in data set [4] turned out to be 2.38 µM. Further, in data set [5], the “inhibition of mitochondrial respiratory chain complex I” value is “moderately potent and selective inhibitor”. In data set [6], the “metabolism after oral administration” value is “easily metabolized after oral administration”. Also, in data set [6] (oral), the bioavailability result is given as “low bioavailability” and the pharmacokinetic properties result is given as “poor pharmacokinetic properties”.

As for `COc1cc(C[C@@]2(C)C(=O)OC[C@@H]2Cc2ccc(OC)c(OC)c2)ccc1O` [Compound A4-1a, (3R,4R)-4-(3,4-dimethoxybenzyl)-3-(4-hydroxy-3-methoxybenzyl)-3-methyldihydrofuran-2 (3H)-one], the IC50 amounted to 0.507 µM in data set [7]; 0.081 µM in data set [3]; 0.424 µM in data set [4]; 0.038 µM in data set [1]; 0.04 µM in data set [2]. Moreover, the “drug concentrations in plasma and tissues compared with Arctigenin” value in data set [8] was “significantly higher drug concentrations in plasma and tissues”.

In data set [7], `COc1cc(C[C@]2(F)C(=O)OC[C@@H]2Cc2ccc(OC)c(OC)c2)ccc1O` [Compound A4-1b] had an IC50 of 1.27 µM.

The compound `COc1cc(C[C@@]2(F)C(=O)OC[C@@H]2Cc2ccc(OC)c(OC)c2)ccc1O` [Compound A4-1c] yielded an IC50 in data set [7] of 0.185 µM.

Turning to `COc1cc(C[C@@]2(Cl)C(=O)OC[C@@H]2Cc2ccc(OC)c(OC)c2)ccc1O` [Compound A4-1d], the IC50 was determined as 0.169 µM in data set [3] and 0.546 µM in data set [4].

As to `COc1cc(C[C@@]2(CCl)C(=O)OC[C@@H]2Cc2ccc(OC)c(OC)c2)ccc1O` [Compound A4-1e], the half-maximal inhibitory concentration (IC50) is 0.473 µM in data set [7], 1 µM in data set [1] and 0.15 µM in data set [2].

Take `COc1cc(C[C@@]2(CO)C(=O)OC[C@@H]2Cc2ccc(OC)c(OC)c2)ccc1O` [Compound A4-1i]: the values for the IC50 in data set [3] and in data set [4] were 0.091 µM and 0.433 µM, respectively.

For `COc1ccc(C[C@H]2COC(=O)[C@@H]2Cc2ccc(O)c(OCCc3ccccc3)c2)cc1OC` [Compound B9-1a, (3R,4R)-4-(3,4-dimethoxybenzyl)-3-(4-hydroxy-3-phenylethoxybenzyl)dihydrofuran-2 (3H)-one], 0.054 µM corresponded to half-maximal inhibition in data set [7] (IC50).

Take `[2H]C([2H])([2H])Oc1cc(C[C@H]2C(=O)OC[C@@H]2Cc2ccc(OC)c(OC)c2)ccc1O` [Compound B9-1d]: the IC50 in data set [7] came out at 0.696 µM; in data set [3], 0.602 µM.

Consider `COc1ccc(C[C@H]2COC(=O)[C@@H]2Cc2ccc(O)c(OCC(F)(F)F)c2)cc1OC` [Compound B9-1e], for which the IC50 is 0.274 µM in data set [3] and 0.175 µM in data set [4].

Consider `COc1ccc(C[C@H]2COC(=O)[C@@H]2Cc2ccc(O)c(OCc3ccccc3)c2)cc1OC` [Compound B9-1p], for which inhibition in data set [7] was half-maximal at 0.465 µM (IC50).

Turning to `COc1ccc(C[C@H]2COC(=O)[C@@H]2Cc2ccc(O)c(OCCc3ccc(C(F)(F)F)cc3)c2)cc1OC` [Compound B9-1q], the midpoint of inhibition in data set [7], the IC50, lay at 0.064 µM.

`COc1ccc(C[C@H]2COC(=O)[C@@H]2Cc2ccc(O)c(OCCn3cccc3)c2)cc1OC` [Compound B9-1r] gave a half-inhibitory concentration (IC50) in data set [7] of 0.316 µM.

As for `COc1ccc(C[C@H]2COC(=O)[C@@H]2Cc2ccc(O)c(OCC(O)c3ccccc3)c2)cc1OC` (stereo partly shown) [Compound B9-1u], half-maximal inhibition in data set [7] (IC50) was put at 0.564 µM.

Compound `COc1ccc(C[C@H]2COC(=O)[C@@H]2Cc2ccc(O)c(OCCCc3ccccc3)c2)cc1OC` [Compound B9-1v] registered a 50% inhibitory concentration (IC50) in data set [7] of 0.034 µM.

On to `COc1ccc(C[C@H]2COC(=O)[C@@H]2Cc2ccc(O)c(OCC(O)c3ccc(C(F)(F)F)cc3)c2)cc1OC` (stereo partly shown) [Compound B9-1x], for which half-maximal inhibition in data set [7] (IC50) required 0.65 µM.

In data set [7], `COc1ccc(C[C@H]2COC(=O)[C@]2(C)Cc2ccc(O)c(OCCc3ccccc3)c2)cc1OC` [Compound B11-1a, (3R,4R)-4-(3,4-dimethoxybenzyl)-3-(4-hydroxy-3-phenylethoxybenzyl)-3-methyldihydrofuran-2 (3H)-one] yielded an IC50 of 0.646 µM.

`COc1ccc(C[C@H]2COC(=O)[C@]2(C)Cc2ccc(O)c(OCC(F)(F)F)c2)cc1OC` [Compound B11-1b]: the IC50 in data set [7] is 0.668 µM; in data set [3], 0.047 µM; in data set [4], 0.626 µM.

For `COc1ccc(C[C@H]2COC(=O)[C@]2(C)Cc2ccc(O)c(OCC(O)c3ccc(C(F)(F)F)cc3)c2)cc1OC` (stereo partly shown) [Compound B11-1c], the IC50 amounted to 0.289 µM in data set [3] and 0.446 µM in data set [4].

`COc1cc(C[C@H]2COC(=O)[C@]2(C)Cc2ccc(O)c(OC)c2)ccc1O` [Compound B11-1e]: it took 1.37 µM to reach half-maximal inhibition in data set [7] (IC50).

For `COc1cc(C[C@@]2(C)C(=O)OC[C@@H]2Cc2ccc3c(c2)OCO3)ccc1O` [Compound B11-1f], in data set [7], inhibition was half-maximal at 0.42 µM (IC50).

`COc1ccc(C[C@H]2COC(=O)[C@]2(C)Cc2ccc(OC)c(OC)c2)cc1OC` [Compound B11-1h] returned an IC50 in data set [7] of 13.2 µM.
